In patent US20230002324A1, “NAPHTHOQUINONE DERIVATIVES FOR TREATMENT OF OXIDATIVE STRESS DISORDERS” (PTC THERAPEUTICS, INC., priority 2019, published 2023):
Read-outs that look alike come from different tables or passages of the source.

Tests used:
Format in all cases: cell-based
[1] = system: Q7 cells (ST HDH Q7/7; immortalized mouse striatal cells); assay: Q7 Cystine Deprivation cell survival (rescue) assay; conditions: 18 h, read-out: Q7 Cystine Deprivation Survival EC50
Procedure, shortened: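 Cells were seeded at 3,000/well and allowed to attach for 5 h at 33 °C. Wells were then washed twice with PBS and switched to cystine-free DMEM containing FBS, 4 mM L-glutamine, 1 mM pyruvate and 30 mg/L methionine to induce ferroptotic death. Compounds were scored for survival rescue.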

[2] = system: normal human fibroblasts (NHF, GM21811); assay: NHF GM21811 RSL3 challenge cell survival (rescue) assay; conditions: Fibroblast, 48 h, read-out: NHF GM21811 RSL3 Survival EC50
From the text: (§1) In neuronal cells excess extracellular glutamate inhibits the cystine/glutamate antiporter leading to intracellular cysteine depletion, GSH depletion, reactive oxygen species (ROS) production and cell death, a phenomenon termed oxidative glutamate toxicity, oxytosis, or ferroptosis. […] Q7 cells (ST HDH Q7/7; immortalized mouse striatal cells) challenged with cystine-free media or the selective, irreversible GPX4 inhibitor, methyl (1S,3R)-2-(2-chloroacetyl)-1-(4-(methoxycarbonyl)phenyl)-2,3,4,9-tetrahydro-1H-pyrido[3,4-b]indole-3-carboxylate (hereafter referred to as RSL3), recapitulate this phenotype, as do normal human fibroblasts (NHF) challenged with RSL3. An initial screen was performed to identify compounds effective in rescuing Q7 and/or NHF cells from death resulting from cystine deprivation or RSL3 challenge. This method is further described in Yonezawa et al., J. Neurochem 67, 566-573 (1996), Li et al., J Neurosci., 23, 5816-5826 (2003), Yang and Stockwell, Chem Biol., 15: 234-45 (2008), and Yang et al., Cell 156, 317-331 (2014). See also Hinman A, Holst C R, Latham J C, et al. Vitamin E hydroquinone is an endogenous regulator of ferroptosis via redox control of 15-lipoxygenase. PLoS One. 2018; 13(8):e0201369. Published 2018 Aug. 15. doi:10.1371/journal.pone.0201369; and Kahn-Kirby A H, Amagata A, Maeder C I, et al. Targeting ferroptosis: A novel therapeutic strategy for the treatment of mitochondrial disease-related epilepsy. PLoS One. 2019; 14(3):e0214250. Published 2019 Mar. 28. doi:10.1371/journal.pone.0214250.
(§2) DMEM (Catalog no. 11995-040), DMEM without Cystine (Catalog no. 21013-024), DMEM without Glucose (Catalog A1443001), PBS (Phosphate buffered saline), Penicillin-streptomycin mix, L-Glutamine, Glucose, Phenol Red, and Pyruvate were purchased from ThermoFisher Scientific (Gibco). Fetal Bovine Serum was obtained from Mediatech, Inc., or Sigma Aldrich. Mouse striatum derived ST HDH Q7/7 (Q7) and normal human skin fibroblast (NHF, product number GM21811) cells were obtained from the Coriell Institute. Methionine and Vitamin K2 were purchased from Sigma Aldrich. RSL3 was synthesized as previously described (see e.g. US Patent Publication US2010/0081654). Cell Titer Glo 2.0 was purchased from Promega. Q7 cell culture medium (Q7 growth medium) was made by combining 50 mL Fetal Bovine Serum, 100 U/mL penicillin, and 100 microgram/mL streptomycin; DMEM was added to make the volume up to 500 mL. Assay medium for the Cystine Deprivation assay was prepared by combining 50 mL Fetal Bovine Serum, 100 U/mL penicillin, 100 microgram/mL streptomycin, 4 mM L-Glutamine, 1 mM Pyruvate and 30 mg/L Methionine; DMEM without Cystine was added to make the volume up to 500 mL. NHF cell culture medium (NHF growth medium) was made by combining 50 mL Fetal Bovine Serum, 100 U/mL penicillin, 100 microgram/mL streptomycin, 2.8 mL 20% Glucose solution (final concentration 6 mM), L-glutamine (final concentration 2 mM), phenol red (final concentration 15 mg/L); DMEM without Glucose was added to make the volume up to 500 mL. Assay medium for the RSL3 challenge assay was identical to Growth medium. While not in use during the course of the experiments, these solutions were stored at 4° C. The cells were grown in 150-cm^2 tissue culture-treated flasks. Every third or fourth day, the cells were sub-cultured by trypsinization and re-seeded at a cell density of 600,000 (Q7) or 300,000 (NHF) cells per flask.
(§3) Q7 or NHF cells were cultured routinely as described herein. For 384-well cell survival assays, cells were seeded in clear bottom, black wall 384-well tissue culture-treated polystyrene plates by re-suspending a cell suspension at a density of 50,000 cells/mL in growth medium, then dispensing 60 microliters of cell suspension per well using either an electronic multichannel pipette or a Multidrop™ Combi Reagent Dispenser (ThermoFisher Scientific), corresponding to 3,000 cells/well. […]

[3] = system: Q7 cells (ST HDH Q7/7; immortalized mouse striatal cells); assay: Q7 RSL3 challenge cell survival (rescue) assay; conditions: 18 h, read-out: Q7 RSL3 Survival EC50
From the text: as §1, §2, §3

[4] = Q7 cells, cystine-free medium, Cell Titer Glo, 50% relative viability vs Vitamin K2 (1 micromolar)
[5] = NHF cells, RSL3 2 micromolar, Cell Titer Glo
[6] = Q7 cells, RSL3 2 micromolar, Cell Titer Glo

| Compound | EC50 [1, 4] [nM] | EC50 [2, 5] [nM] | EC50 [3, 6] [nM] | EC50 [2] [nM] | EC50 [3] [nM] | EC50 [1] [nM] |
| --- | --- | --- | --- | --- | --- | --- |
| CC1=C(Cc2ccc(F)cn2)C(=O)c2ccccc2C1=O [Example 6, 2-((5-fluoropyridin-2-yl)methyl)-3-methylnaphthalene-1,4-dione] | < 50 | < 50 | < 50 | – | – | – |
| CC1=C(Cc2ccc(C(F)F)cn2)C(=O)c2ccccc2C1=O [Example 20, 2-((5-(difluoromethyl)pyridin-2-yl)methyl)-3-methylnaphthalene-1,4-dione] | < 50 | < 50 | < 50 | – | – | – |
| [2H]C([2H])(C1=C(C)C(=O)c2ccccc2C1=O)c1ccc(C(F)(F)F)cn1 [Example 21, 2-methyl-3-((5-(trifluoromethyl)pyridin-2-yl)methyl-d2)naphthalene-1,4-dione] | – | < 50 | < 50 | – | – | – |
| CC1(CCC2=C(Cc3ccc(C(F)(F)F)cn3)C(=O)c3ccccc3C2=O)COC1 [Example 32, 2-(2-(3-methyloxetan-3-yl)ethyl)-3-((5-(trifluoromethyl)pyridin-2-yl)methyl)naphthalene-1,4-dione] | < 50 | 50 to 250 | < 50 | – | – | – |
| O=C1C(CCC2COC2)=C(Cc2ccc(C(F)(F)F)cn2)C(=O)c2ccccc21 [Example 33, 2-(2-(oxetan-3-yl)ethyl)-3-((5-(trifluoromethyl)pyridin-2-yl)methyl)naphthalene-1,4-dione] | < 50 | 50 to 250 | < 50 | – | – | – |
| O=C1C(Cc2ccc(F)cn2)=C(C2CC2)C(=O)c2ccccc21 [Example 35, 2-cyclopropyl-3-((5-fluoropyridin-2-yl)methyl)naphthalene-1,4-dione] | < 50 | < 50 | < 50 | – | – | – |
| CC1=C(Cc2ccc(F)cn2)C(=O)c2ccc(F)cc2C1=O [Example 48, 6-fluoro-2-((5-fluoropyridin-2-yl)methyl)-3-methylnaphthalene-1,4-dione] | < 50 | < 50 | < 50 | – | – | – |
| CC1=C(Cc2ccc(C(F)(F)F)cn2)C(=O)c2cc(C(F)(F)F)ccc2C1=O [Example 53, 2-methyl-6-(trifluoromethyl)-3-((5-(trifluoromethyl)pyridin-2-yl)methyl)naphthalene-1,4-dione] | 50 to 250 | – | 50 to 250 | – | – | – |
| [2H]C([2H])([2H])C1=C(Cc2ccc(C(F)(F)F)cn2)C(=O)c2ccccc2C1=O [Example 54, 2-(methyl-d3)-3-((5-(trifluoromethyl)pyridin-2-yl)methyl)naphthalene-1,4-dione] | < 50 | – | < 50 | – | – | – |
| CCC1=C(Cc2ccc(C(F)(F)F)cn2)C(=O)c2cc(F)cc(F)c2C1=O [Example 56, 3-ethyl-5,7-difluoro-2-((5-(trifluoromethyl)pyridin-2-yl)methyl)naphthalene-1,4-dione] | – | – | – | < 50 | < 50 | – |
| CC1=C(Cc2ccc(C(F)(F)F)cn2)C(=O)c2cccc(Cl)c2C1=O [Example 60, 5-chloro-3-methyl-2-[[5-(trifluoromethyl)-2-pyridyl]methyl]naphthalene-1,4-dione] | – | < 50 | < 50 | – | – | – |
| [2H]C([2H])([2H])C1=C(Cc2ccc(C(F)(F)F)c(C#N)n2)C(=O)c2cc(F)cc(F)c2C1=O [Example 71, 6-((5,7-difluoro-3-(methyl-d3)-1,4-dioxo-1,4-dihydronaphthalen-2-yl)methyl)-3-(trifluoromethyl)picolinonitrile] | – | < 50 | < 50 | – | – | – |
| [2H]C([2H])([2H])C1=C(Cc2ccc(C(F)(F)F)c(C#N)n2)C(=O)c2c(F)cc(F)cc2C1=O [Example 72, 6-((6,8-difluoro-3-(methyl-d3)-1,4-dioxo-1,4-dihydronaphthalen-2-yl)methyl)-3-(trifluoromethyl)picolinonitrile] | – | < 50 | < 50 | – | – | – |
| [2H]C([2H])([2H])C1=C(Cc2ccc(C(F)(F)F)c(C#N)n2)C(=O)c2ccc(F)cc2C1=O [Example 73, 6-((6-fluoro-3-(methyl-d3)-1,4-dioxo-1,4-dihydronaphthalen-2-yl)methyl)-3-(trifluoromethyl)picolinonitrile] | – | < 50 | < 50 | – | – | – |
| CC1=C(Cc2ccc(C(F)(F)F)c(C#N)n2)C(=O)c2cc(F)cc(F)c2C1=O [Example 74, 6-((5,7-difluoro-3-methyl-1,4-dioxo-1,4-dihydronaphthalen-2-yl)methyl)-3-(trifluoromethyl)picolinonitrile] | – | < 50 | 50 to 250 | – | – | – |
| CC1=C(Cc2ccc(C(F)(F)F)c(C#N)n2)C(=O)c2c(F)cc(F)cc2C1=O [Example 75, 6-((6,8-difluoro-3-methyl-1,4-dioxo-1,4-dihydronaphthalen-2-yl)methyl)-3-(trifluoromethyl)picolinonitrile] | – | < 50 | < 50 | – | – | – |
| [2H]C([2H])([2H])C1=C(Cc2ccc(C(F)(F)F)c(C#N)n2)C(=O)c2c(F)ccc(F)c2C1=O [Example 76, 6-((5,8-difluoro-3-(methyl-d3)-1,4-dioxo-1,4-dihydronaphthalen-2-yl)methyl)-3-(trifluoromethyl)picolinonitrile] | – | < 50 | < 50 | – | – | – |
| CC1=C(Cc2ccc(C(F)(F)F)c(C#N)n2)C(=O)c2ccccc2C1=O [Example 77, 6-((3-methyl-1,4-dioxo-1,4-dihydronaphthalen-2-yl)methyl)-3-(trifluoromethyl)picolinonitrile] | – | < 50 | < 50 | – | – | – |
| CCCC1=C(Cc2ccc(C(F)(F)F)c(C#N)n2)C(=O)c2cc(F)cc(F)c2C1=O [Example 82, 6-((5,7-difluoro-1,4-dioxo-3-propyl-1,4-dihydronaphthalen-2-yl)methyl)-3-(trifluoromethyl)picolinonitrile] | – | < 50 | < 50 | – | – | – |
| O=C1C(Cc2ccc(F)cn2)=C(C2CC2)C(=O)c2c(F)ccc(F)c21 [Example 87, 2-cyclopropyl-5,8-difluoro-3-((5-fluoropyridin-2-yl)methyl)naphthalene-1,4-dione] | – | < 50 | < 50 | – | – | – |
| CCC1=C(Cc2ccc(F)cn2)C(=O)c2c(F)ccc(F)c2C1=O [Example 88, 2-ethyl-5,8-difluoro-3-((5-fluoropyridin-2-yl)methyl)naphthalene-1,4-dione] | – | < 50 | < 50 | – | – | – |
| CCCC1=C(Cc2ccc(C(F)(F)F)c(C#N)n2)C(=O)c2ccccc2C1=O [Example 114, 6-((1,4-dioxo-3-propyl-1,4-dihydronaphthalen-2-yl)methyl)-3-(trifluoromethyl)picolinonitrile] | < 50 | – | < 50 | – | – | – |
| Cc1c(Cc2ccc(C(F)(F)F)cn2)c(O)c2ccccc2c1O [Example 131, 2-methyl-3-((5-(trifluoromethyl)pyridin-2-yl)methyl)naphthalene-1,4-diol] | – | – | – | – | < 50 | < 50 |
